Source: patent publication US20100286082A1, “RIBOSWITCHES AND METHODS AND COMPOSITIONS FOR USE OF AND WITH RIBOSWITCHES” (Yale University, priority 2007, published 2010)

How the values were obtained:
[1] = tested on: 17-90 RNA; assay: In-line probing of 17-90 RNA (preQ1-II aptamer); assay type: binding, Streptococcus pneumoniae R6; conditions: compound concentrations up to 1 mM
[2] = tested on: 17-90 RNA mutant U41; assay: In-line probing of mutant (U41) 17-90 RNA; assay type: binding, Streptococcus pneumoniae R6; conditions: compared with wild type
[3] = target: 68 metH RNA; assay: In-line probing of 68 metH RNA (SAH aptamer); assay type: binding, Dechloromonas aromatica; conditions: in-line probing; read-out: apparent dissociation constant KD
Experimental: iii. In-Line Probing Analysis In-line probing assays were carried out essentially as previously described (Soukup and Breaker, 1999). 5′^32P-labeled RNAs were incubated at room temperature for approximately 40 h in 10 μl volumes containing 50 mM Tris-HCl (pH 8.3 at 25° C.), 20 mM MgCl2, 100 mM KCl, and included test compounds at the concentrations indicated. Spontaneous cleavage products were separated by denaturing 10% PAGE, visualized using a Phosphorlmager (Molecular Dynamics), and quantified using SAFA v1.1 software (Das et al., 2005). The amount of RNA cleaved at each nucleotide position was obtained from SAFA analysis, which automatically determines reference nucleotide positions with invariant levels of spontaneous cleavage to correct for different amounts loaded in each lane. Individual band intensities at each modulated site were summed and normalized to obtain values for the fraction of RNA that was structurally modulated, assuming that there was no modulation in the absence of ligand and maximal modulation in the presence of the highest concentration of ligand. Values for the apparent dissociation constant (KD) were determined by fitting the plot of the fraction modulated (F), versus the ligand concentration, [L], at all three indicated modulation sites to the equation F [L]/([L]+KD) using SigmaPlot 9 software (Systat Software, Inc.).

[4] = tested on: SAH riboswitch of the ahcY 5′-UTR fused to lacZ (WT reporter strain); assay: In vivo reporter gene expression, ahcY 5′ UTR-lacZ translational fusion; assay type: cell-based, Pseudomonas syringae; conditions: Vogel-Bonner minimal medium supplemented with 250 μM compound
Experimental: An in vivo gene control assay was conducted wherein the IGR encompassing the 5′ UTR of the ahcY gene in P. syringae was fused immediately upstream of a lacZ coding sequence. This construct retained the start codon of the ahcY gene, which was fused in frame with the reporter gene ORF. The resulting translational fusion vector was transformed into P. syringae to produce the wild-type (WT) reporter strain. Similarly, a series of mutant reporter strains were constructed that are expected to disrupt or restore aptamer function (FIG. 13A). Transformed P. syringae strains subsequently were grown in either King's medium B (rich) or Vogel-Bonner medium (minimal), and the reporter expression levels of the mutant constructs were compared to the results from the WT reporter construct (FIG. 13B).
Nucleotides ˜367 to +6 relative to the predicted ahcY translation start site (GenBank accession: NC—004578.1; nucleotides 5,771,072 to 5,771,444) were amplified as a BamHI-HindIII fragment by whole-cell PCR of Pseudomonas syringae pv. tomato str. DC3000. The PCR product was cloned into the translational fusion vector pRA301 (Akakura and Winans, 2002) immediately upstream of the lacZ reporter gene. This reporter vector is stably maintained in pseudomonas since it harbors the origin of replication rep and stability region sta derived from the pseudomonas aeruginosa vector pVS1 (Itoh et al., 1984). […]

[5] = target: 132 Sc RNA (SAM-IV riboswitch); assay: In-line probing of 132 Sc RNA (SAM-IV); assay type: binding, Streptomyces coelicolor
Excerpt: DNA corresponding to the aptamer in the pEZ35 plasmid (above) was amplified by PCR with primers 5′-[…]

[6] = target: SAM-I riboswitch 124 yitJ; assay: SAM-I riboswitch binding (literature); conditions: ratio of the KD for the compound to that for SAM
[7] = tested on: SAM-II aptamer 156 metA; conditions: representative of SAM-II aptamers, Lim et al., 2006b; cited from earlier work
[8] = target: SAM-I riboswitch 124 yitJ; conditions: cited from earlier work
[9] = tested on: 17-90 RNA; assay: Equilibrium dialysis of 3H-preQ1 with 17-90 RNA; assay type: binding, Streptococcus pneumoniae R6; conditions: excess unlabeled compound added to chamber a after equilibration
Experimental: Equilibrium dialysis experiments were preformed with ^3H-preQ1 and the 17-90 RNA construct to confirm ligand binding and the specificity of molecular recognition using a different methodology. For equilibrium dialysis, ^3H-preQ1 was added to chamber a of an equilibrium dialysis apparatus, and excess RNA is added to chamber b. The two chambers are separated by a 5,000 Dalton molecular weight cut off dialysis membrane (FIG. 18A). The solutions were allowed to equilibrate and the fraction of tritium in each chamber was subsequently measured by liquid scintillation counting. […] When ^3H-preQ1 ([…]) is equilibrated without RNA, or with an RNA that lacks the ability to form the P3 stem (1-81 RNA), the ^3H label distributes evenly (b/a ˜1). […]
A 30 μl mixture containing 50 mM Tris-HCl (pH 8.3 at 23° C.), 20 mM MgCl2, 100 mM KCl, and 1 μM of ^3H-labeled preQ1 was placed in one chamber of a DispoEquilibrium Dialyzer (ED-1, Harvard Bioscience) and the same volume containing the same constituents minus the ^3H-labeled preQ1 was added to the opposing side. When noted, the latter solution also contained either 5 μM 17-90 RNA or 5 μM 1-81 RNA. After equilibrating for 14 hours, a 5 μl aliquot was removed from each side of the apparatus to determine the distribution of ^3H-label in the two chambers by liquid scintillation counting. […]

Nc1nc(N)c2[nH]cnc2n1 [DAP, 2,6-diaminopurine]
binding by 17-90 RNA [1]: near identical KD values
binding by the U41 mutant [2]: essentially the same affinity as wild type

Nc1ncnc2c1ncn2[C@@H]1O[C@H](CSCC[C@H](N)C(=O)O)[C@@H](O)[C@H]1O [SAH, S-adenosylhomocysteine]
Kd [3]: ~20 nM
riboswitch-mediated reporter expression [4]: only slightly increases reporter expression
Kd ([5]; in-line probing, 132 Sc RNA, read-out: apparent dissociation constant (KD)): 20000 nM
KD [compound]/ KD [SAM] SAM-IV ([5]; ratio of the KD for the compound to that for SAM): 133
KD [compound]/ KD [SAM] SAM-I [6]: 80
discrimination against SAH [7]: more than 1000 fold
Kd ([8]; calculated previously (Lim et al. 2006), read-out: KD [compound] (nM) SAM-I): 400 nM
discrimination against SAH ([8]; representative of SAM-I aptamers, Lim et al., 2006b): ~80 fold

Nc1nc2nc[nH]c2c(=O)[nH]1 [guanine]
competition with 3H-preQ1 (distribution of 3H label) [9]: has no effect on the distribution of ^3H
